Each cell line was assayed with CC(C)N(CCCNC(=O)Nc1ccc(C(C)(C)C)cc1)C[C@H]1O[C@@H](n2ccc3c(N)ncnc32)[C@H](O)[C@@H]1O + COc1cccc2cc(-c3nc([C@H]4CC[C@H](C(=O)O)CC4)n4ncnc(N)c34)[nH]c12 [OSI-027] (partner 0.5 µM) (assay: relative viability (nuclei count vs DMSO), 5 days (fraction); higher = more cells survive). Conditions: first compound 0.08 µM.
How it was run: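 Lung cancer cell lines were pin-tool dosed in 1536-well plates on the day after seeding, with either a lone drug or a fixed anchor-drug dose plus five library-drug doses (not always all listed) in √10 steps. Nuclei were counted on 4× images after 5 days. Relative viability is the ratio of treated-well to vehicle-well nuclei counts, with each value a median of duplicate plates.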

Going from NCI-H2087 to HCC-366, the relative viability rises from 0.443 to 0.916.

Compared with NCI-H1666, NCI-H650 is lower in relative viability: 0.745 for the first, 0.485 for the second.

First: LK-2
Second: NCI-H2126
The relative viability of the first is lower: 0.235 for the first, 0.627 for the second.

Compared with NCI-H1648, SK-MES-1 is higher in relative viability: 0.277 for the first, 0.615 for the second.

First: H3255
Second: COR-L23
The relative viability of the first is lower: 0.564 for the first, 0.758 for the second.

Compared with COR-L 105, LOU-NH91 is higher in relative viability: 0.682 for the first, 0.734 for the second.

Compared with ChaGo-K-1, NCI-H2170 is higher in relative viability: 0.525 for the first, 0.675 for the second.

Going from NCI-H3122 to HOP-62, the relative viability falls from 0.897 to 0.864.

Going from HCC-44 to NCI-H522, the relative viability rises from 0.507 to 0.58.

Compared with LU99A, BEN is lower in relative viability: 0.317 for the first, 0.301 for the second.

First: HARA
Second: SW 900
The relative viability of the first is lower: 0.454 for the first, 0.482 for the second.

First: HCC-78
Second: NCI-H441
The relative viability of the first is lower: 0.376 for the first, 0.589 for the second.

Going from LCLC-97TM1 to NCI-H1395, the relative viability rises from 0.555 to 0.67.

For NCI-H1793, the relative viability was 0.27.

Same assay, conditions: first compound 0.253 µM

Compared with NCI-H2342, NCI-H1623 is lower in relative viability: 0.643 for the first, 0.469 for the second.

Compared with PC-14, NCI-H1650 is lower in relative viability: 0.802 for the first, 0.696 for the second.

Compared with NCI-H2009, NCI-H520 is lower in relative viability: 0.722 for the first, 0.248 for the second.

First: PC-3 [JPC-3]
Second: LCLC-103H
The relative viability of the first is higher: 0.867 for the first, 0.58 for the second.

Going from NCI-H647 to NCI-H2228, the relative viability rises from 0.579 to 0.632.

First: EMC-BAC-2
Second: NCI-H2087
The relative viability of the first is lower: 0.485 for the first, 0.707 for the second.

Going from HCC-366 to NCI-H1666, the relative viability falls from 1.27 to 1.04.

Compared with NCI-H650, LK-2 is lower in relative viability: 0.63 for the first, 0.277 for the second.

Going from NCI-H2126 to NCI-H1648, the relative viability falls from 0.77 to 0.258.

Going from SK-MES-1 to H3255, the relative viability falls from 0.685 to 0.614.

Compared with COR-L23, COR-L 105 is lower in relative viability: 0.739 for the first, 0.581 for the second.

First: LOU-NH91
Second: ChaGo-K-1
The relative viability of the first is higher: 0.714 for the first, 0.616 for the second.

First: NCI-H2170
Second: NCI-H3122
The relative viability of the first is lower: 0.7 for the first, 1.02 for the second.

Compared with HOP-62, HCC-44 is lower in relative viability: 0.89 for the first, 0.509 for the second.

First: NCI-H522
Second: LU99A
The relative viability of the first is higher: 0.895 for the first, 0.327 for the second.

Going from BEN to HARA, the relative viability rises from 0.277 to 0.536.

Going from SW 900 to HCC-78, the relative viability falls from 0.569 to 0.388.

First: NCI-H441
Second: LCLC-97TM1
The relative viability of the first is lower: 0.587 for the first, 0.642 for the second.

Work on NCI-H1395 yielded a relative viability of 0.631.

Same assay, conditions: first compound 0.8 µM

Compared with NCI-H2342, NCI-H1623 is lower in relative viability: 0.611 for the first, 0.529 for the second.

First: PC-14
Second: NCI-H2009
The relative viability of the first is higher: 0.786 for the first, 0.702 for the second.

First: NCI-H520
Second: PC-3 [JPC-3]
The relative viability of the first is lower: 0.235 for the first, 0.718 for the second.

Compared with LCLC-103H, NCI-H2228 is higher in relative viability: 0.495 for the first, 0.526 for the second.

Going from EMC-BAC-2 to NCI-H2087, the relative viability falls from 0.42 to 0.402.

First: HCC-366
Second: NCI-H1666
The relative viability of the first is higher: 0.716 for the first, 0.611 for the second.

First: NCI-H650
Second: LK-2
The relative viability of the first is higher: 0.602 for the first, 0.215 for the second.

First: NCI-H2126
Second: NCI-H1648
The relative viability of the first is higher: 0.734 for the first, 0.247 for the second.

Going from SK-MES-1 to H3255, the relative viability rises from 0.586 to 0.685.

First: COR-L23
Second: COR-L 105
The relative viability of the first is higher: 0.697 for the first, 0.664 for the second.

Compared with LOU-NH91, ChaGo-K-1 is lower in relative viability: 0.666 for the first, 0.471 for the second.

Compared with NCI-H2170, NCI-H3122 is higher in relative viability: 0.669 for the first, 0.925 for the second.

First: HOP-62
Second: HCC-44
The relative viability of the first is higher: 0.767 for the first, 0.432 for the second.

First: NCI-H522
Second: LU99A
The relative viability of the first is higher: 0.848 for the first, 0.329 for the second.

First: BEN
Second: HARA
The relative viability of the first is lower: 0.298 for the first, 0.621 for the second.

Compared with HCC-78, LCLC-97TM1 is higher in relative viability: 0.356 for the first, 0.716 for the second.

First: NCI-H1395
Second: NCI-H1793
The relative viability of the first is higher: 0.57 for the first, 0.228 for the second.

Same assay, conditions: first compound 2.53 µM

Compared with NCI-H2342, NCI-H1623 is lower in relative viability: 0.61 for the first, 0.422 for the second.

First: PC-14
Second: NCI-H1650
The relative viability of the first is higher: 0.872 for the first, 0.744 for the second.

Going from NCI-H2009 to NCI-H1993, the relative viability falls from 0.599 to 0.578.

First: NCI-H520
Second: PC-3 [JPC-3]
The relative viability of the first is lower: 0.348 for the first, 0.779 for the second.

Compared with LCLC-103H, NCI-H647 is higher in relative viability: 0.451 for the first, 0.742 for the second.

First: NCI-H2228
Second: EMC-BAC-2
The relative viability of the first is higher: 0.623 for the first, 0.412 for the second.

Compared with NCI-H2087, HCC-366 is higher in relative viability: 0.653 for the first, 0.816 for the second.

Compared with NCI-H1666, NCI-H650 is lower in relative viability: 0.829 for the first, 0.468 for the second.

First: LK-2
Second: NCI-H2126
The relative viability of the first is lower: 0.236 for the first, 0.715 for the second.

Compared with NCI-H1648, SK-MES-1 is higher in relative viability: 0.247 for the first, 0.619 for the second.

Going from H3255 to COR-L23, the relative viability rises from 0.543 to 0.735.

Compared with COR-L 105, LOU-NH91 is higher in relative viability: 0.427 for the first, 0.689 for the second.

Going from ChaGo-K-1 to NCI-H2170, the relative viability rises from 0.628 to 0.709.

Compared with NCI-H3122, HOP-62 is lower in relative viability: 0.926 for the first, 0.751 for the second.

Going from HCC-44 to NCI-H522, the relative viability rises from 0.572 to 0.643.

Compared with LU99A, BEN is lower in relative viability: 0.377 for the first, 0.294 for the second.

Compared with HARA, SW 900 is higher in relative viability: 0.568 for the first, 0.691 for the second.

Compared with HCC-78, NCI-H441 is higher in relative viability: 0.364 for the first, 0.735 for the second.

Going from LCLC-97TM1 to NCI-H1395, the relative viability rises from 0.557 to 0.62.

NCI-H1793 was tested, and the relative viability was 0.274.

Same assay, conditions: first compound 8 µM

Going from NCI-H2342 to NCI-H1623, the relative viability falls from 0.607 to 0.437.

Going from PC-14 to NCI-H1650, the relative viability falls from 0.745 to 0.703.

First: NCI-H2009
Second: NCI-H1993
The relative viability of the first is higher: 0.587 for the first, 0.56 for the second.

First: NCI-H520
Second: PC-3 [JPC-3]
The relative viability of the first is lower: 0.267 for the first, 0.721 for the second.

Going from LCLC-103H to NCI-H647, the relative viability rises from 0.467 to 0.586.

Going from NCI-H2228 to EMC-BAC-2, the relative viability falls from 0.78 to 0.355.

Compared with NCI-H2087, HCC-366 is higher in relative viability: 0.586 for the first, 0.641 for the second.

First: NCI-H1666
Second: NCI-H650
The relative viability of the first is higher: 0.755 for the first, 0.504 for the second.

Going from LK-2 to NCI-H2126, the relative viability rises from 0.213 to 0.672.

NCI-H1648 was tested, and the relative viability was 0.293.

Source: the supplement of paper PMC10307832
